Measurements reported in ChEMBL document CHEMBL5625167, “In vitro bioevaluation and docking study of dihydrosphingosine and ethambutol analogues against sensitive and multi-drug resistant Mycobacterium tuberculosis” (Eur J Med Chem, 2023).
≈ marks a conversion by molar mass, not a printed value. Where “and” joins values, the source holds several entries; their conditions need not be identical. Identical values can stand only once. Calls of active or inactive are those of the source. The rule behind the calls is not given here.

What was measured:
[1] = system: Mycobacterium tuberculosis; test: Antimycobacterial activity against isoniazid, rifampicin, ethambutol and pyrazinamide sensitive Mycobacterium tuberculosis H37Rv ATCC 25618 assessed as inhibition of bacterial growth incubated for 7 days by resazurin dye based colorimetric method analysis; assay type: functional; conditions: H37Rv ATCC 25618, 168 h, time 7 day
[2] = system: Mycobacterium tuberculosis; test: Potency index, ratio of ethambutol MIC to test compound MIC for antimycobacterial activity against isoniazid, rifampicin, ethambutol and pyrazinamide sensitive Mycobacterium tuberculosis H37Rv ATCC 25618 assessed as inhibition of bacterial growth incubated for 7 days by resazurin dye based colorimetric method analysis; assay type: functional; conditions: time 7 day
[3] = Cytotoxicity against African green monkey Vero cells assessed as reduction in cell population incubated for 48 hrs by MTT assay; assay type: toxicity, cell-based; conditions: chlorocebus sabaeus
[4] = Cytotoxicity against mouse J774.A1 cells assessed as reduction in cell population incubated for 48 hrs by MTT assay; assay type: toxicity, cell-based
[5] = Cytotoxicity against human HepG2 cells assessed as reduction in cell population incubated for 48 hrs by MTT assay; assay type: toxicity, cell-based
[6] = system: Mycolicibacterium smegmatis; test: Antimycobacterial activity against Mycobacterium smegmatis ATCC607 incubated for 24 hrs by resazurin dye based broth microdilution method; assay type: functional
Staphylococcus aureus = test: Antibacterial activity against Staphylococcus aureus ATCC 25923 incubated for 18 hrs by resazurin dye based broth microdilution method; assay type: functional
Klebsiella pneumoniae = test: Antibacterial activity against Klebsiella pneumoniae ATCC 13883 incubated for 18 hrs by resazurin dye based broth microdilution method; assay type: functional
[7] = system: Mycobacterium tuberculosis; test: Antimycobacterial activity against Mycobacterium tuberculosis H37Rv ATCC 25618 assessed as fractional inhibitory concentration incubated for 7 days in presence of 2-aminoheptadecan-1-ol by resazurin dye based two-dimensional micro dilution checkerboard assay; assay type: functional; conditions: time 7 day
[8] = system: Mycobacterium tuberculosis; test: Antimycobacterial activity against Mycobacterium tuberculosis H37Rv ATCC 25618 incubated for 7 days by resazurin dye based two-dimensional micro dilution checkerboard assay in presence of 1-(benzyloxy)heptadecan-2-amine; assay type: functional; conditions: time 7 day
[9] = system: Mycobacterium tuberculosis; test: Antimycobacterial activity against Mycobacterium tuberculosis H37Rv ATCC 25618 incubated for 7 days by resazurin dye based two-dimensional micro dilution checkerboard assay in presence of 1-((3,4,5-trimethoxybenzyl)oxy)heptadecan-2-amine; assay type: functional; conditions: time 7 day
[10] = system: Mycobacterium tuberculosis; test: Antimycobacterial activity against Mycobacterium tuberculosis H37Rv ATCC 25618 assessed as induction of morphological changes by measuring extrusion of cytosolic material at MIC incubated for 96 hrs by TEM analysis; assay type: functional, organism-based
[11] = system: Mycobacterium tuberculosis; test: Antimycobacterial activity against Mycobacterium tuberculosis H37Rv ATCC 25618 assessed as induction of morphological changes by measuring disruption and discontinuity of the bacterial envelope at MIC incubated for 96 hrs by TEM analysis; assay type: functional, organism-based
[12] = system: Mycobacterium tuberculosis; test: Antimycobacterial activity against Mycobacterium tuberculosis H37Rv ATCC 25618 assessed as induction of morphological changes by measuring increase in lipid inclusions at MIC incubated for 96 hrs by TEM analysis; assay type: functional, organism-based
[13] = system: Mycobacterium tuberculosis; test: Synergistic antimycobacterial activity against Mycobacterium tuberculosis H37Rv ATCC 25618 incubated for 7 days by resazurin dye based two-dimensional micro dilution checkerboard assay in presence of rifampicin; assay type: functional; conditions: time 7 day
[14] = system: Mycobacterium tuberculosis; test: Additive antimycobacterial activity against Mycobacterium tuberculosis H37Rv ATCC 25618 incubated for 7 days by resazurin dye based two-dimensional micro dilution checkerboard assay in presence of ethambutol; assay type: functional; conditions: time 7 day
[15] = system: Mycobacterium tuberculosis; test: Additive antimycobacterial activity against Mycobacterium tuberculosis H37Rv ATCC 25618 incubated for 7 days by resazurin dye based two-dimensional micro dilution checkerboard assay in presence of isoniazid; assay type: functional; conditions: time 7 day
[16] = system: Mycobacterium tuberculosis; test: Additive antimycobacterial activity against Mycobacterium tuberculosis H37Rv ATCC 25618 incubated for 7 days by resazurin dye based two-dimensional micro dilution checkerboard assay in presence of amikacin; assay type: functional; conditions: time 7 day
[17] = system: Mycobacterium tuberculosis; test: Additive antimycobacterial activity against Mycobacterium tuberculosis H37Rv ATCC 25618 incubated for 7 days by resazurin dye based two-dimensional micro dilution checkerboard assay in presence of levofloxacin; assay type: functional; conditions: time 7 day
[18] = system: Mycobacterium tuberculosis; test: Synergistic antimycobacterial activity against Mycobacterium tuberculosis H37Rv ATCC 25618 assessed as fractional inhibitory concentration index incubated for 7 days by resazurin dye based two-dimensional micro dilution checkerboard assay in presence of rifampicin; assay type: functional; conditions: time 7 day
[19] = system: Mycobacterium tuberculosis; test: Additive antimycobacterial activity against Mycobacterium tuberculosis H37Rv ATCC 25618 assessed as fractional inhibitory concentration index incubated for 7 days by resazurin dye based two-dimensional micro dilution checkerboard assay in presence of ethambutol; assay type: functional; conditions: time 7 day
[20] = system: Mycobacterium tuberculosis; test: Additive antimycobacterial activity against Mycobacterium tuberculosis H37Rv ATCC 25618 assessed as fractional inhibitory concentration index incubated for 7 days by resazurin dye based two-dimensional micro dilution checkerboard assay in presence of isoniazid; assay type: functional; conditions: time 7 day
[21] = system: Mycobacterium tuberculosis; test: Additive antimycobacterial activity against Mycobacterium tuberculosis H37Rv ATCC 25618 assessed as fractional inhibitory concentration index incubated for 7 days by resazurin dye based two-dimensional micro dilution checkerboard assay in presence of amikacin; assay type: functional; conditions: time 7 day
[22] = system: Mycobacterium tuberculosis; test: Additive antimycobacterial activity against Mycobacterium tuberculosis H37Rv ATCC 25618 assessed as fractional inhibitory concentration index incubated for 7 days by resazurin dye based two-dimensional micro dilution checkerboard assay in presence of levofloxacin; assay type: functional; conditions: time 7 day
[23] = system: Mycobacterium tuberculosis; test: Antimycobacterial activity against Mycobacterium tuberculosis H37Rv ATCC 25618 assessed as reduction in concentration required to inhibit bacterial growth incubated for 7 days by resazurin dye based two-dimensional micro dilution checkerboard assay in presence of rifampicin relative to control; assay type: functional; set-up: scale not given: the % may be the effect or the level left; conditions: time 7 day
[24] = system: Mycolicibacterium smegmatis; test: Antimycobacterial activity against Mycobacterium smegmatis ATCC607 assessed as reduction in bacterial viability at 19.5 uM incubated for 24 hrs by time kill assay relative to control; assay type: functional
[25] = system: Mycolicibacterium smegmatis; test: Antimycobacterial activity against Mycobacterium smegmatis ATCC607 infected in mouse J774 cells assessed as reduction in intracellular bacterial count at 19.5 to 39 uM measured after 24 hrs; assay type: functional, organism-based; conditions: dose 19.5-39 µM

Row | SMILES | MIC [1] | Ratio [2] | CC50 at 48 h [3] [µM] | CC50 at 48 h [4] [µM] | CC50 at 48 h [5] [µM] | MIC [6] [µM] | MIC (Staphylococcus aureus) [µM] | MIC (Klebsiella pneumoniae) [µM] | also measured
1 | CCCCCCCCCCCCCCCC(CNCCCC)NC(=O)OC(C)(C)C (configuration not stated) | 8 µM (≈ 3.41 µg/mL) | 45 | 20.3 | 21.2 | 136 | 32 (≈ 13.7 µg/mL) | 16 (≈ 6.83 µg/mL) | > 512 | –
2 | CCCCCCCCCCCCCCCCCC(CN)NC(=O)OC(C)(C)C (configuration not stated) | 16 µM (≈ 6.38 µg/mL) | 23 | 17.7 | 30.5 | 115 | 8 (≈ 3.19 µg/mL) | 16 (≈ 6.38 µg/mL) | > 512 | –
3 | CCCCCCCCCCCCCCCC(CNCCCCCC)NC(=O)OC(C)(C)C (configuration not stated) | 8 µM (≈ 3.64 µg/mL) | 45 | 22.9 | 20.8 | 86.8 | 128 (≈ 58.2 µg/mL) | 256 (≈ 116 µg/mL) | > 512 | –
4 | CC[C@@H](CO)NCCN[C@@H](CC)CO [ETHAMBUTOL] | 3.6 µM and 1 µg/mL | 100 | 641 | > 1440 | > 1440 | – | – | – | FIC [7]: 0.125; FIC [8]: 0.5; FIC [9]: 0.5; Activity [10]: Active; Activity [11]: Active; Activity [12]: Active
5 | CCCCCCCCCCCCCCCCCC(CO)NCC (configuration not stated) | 16 µM (≈ 5.24 µg/mL) | 23 | 23.6 | 135 | 192 | 64 (≈ 21 µg/mL) | 32 (≈ 10.5 µg/mL) | 512 (≈ 168 µg/mL) | –
6 | CCCCCCCCCCCCCCCCCCCC(COCc1ccccc1)NCC (configuration not stated) | 16 µM (≈ 7.13 µg/mL) | 23 | 67.8 | 52.3 | 95.1 | 128 (≈ 57.1 µg/mL) | > 512 | > 512 | –
7 | CCCCCCCCCCCCCCCC(CNCC)NC(=O)OC(C)(C)C (configuration not stated) | 16 µM (≈ 6.38 µg/mL) | 23 | 17.7 | 19.8 | 107 | 32 (≈ 12.8 µg/mL) | ≤ 4 | 512 (≈ 204 µg/mL) | –
8 | NNC(=O)c1ccncc1 [ISONIAZID] | 0.91 µM and 0.13 µg/mL | – | – | – | – | – | – | – | FIC [7]: 0.5; FIC [8]: 0.5; FIC [9]: 0.5
9 | CCCCCCCCCCCCCCCC(CO)N(CCCC)CCCC (configuration not stated) | 8 µM (≈ 3.07 µg/mL) | 45 | 47.2 | 22.4 | 82.5 | > 512 | – | – | –
10 | C[C@H]1COc2c(N3CCN(C)CC3)c(F)cc3c(=O)c(C(=O)O)cn1c23 [LEVOFLOXACIN ANHYDROUS] | 0.35 µM and 0.13 µg/mL | – | – | – | – | – | – | – | FIC [7]: 0.031; FIC [8]: 0.5; FIC [9]: 0.5
11 | CCCCc1ccc(CCCCCCCC(N)CO)cc1 (configuration not stated) | 4 µM (≈ 1.17 µg/mL) | 90 | 21.2 | 10.6 | 25.4 | – | – | – | –
12 | CCCCCCCCCCCCCCCCCC(N)CO (configuration not stated) | 8 µM (≈ 2.4 µg/mL) | 45 | 53.2 | 9.65 | 200 | 256 (≈ 76.7 µg/mL) | 256 (≈ 76.7 µg/mL) | > 512 | –
13 | CCCCCCCCCCCCCCCC(COCc1ccccc1)NCC (configuration not stated) | 16 µM (≈ 6.23 µg/mL) | 23 | 26 | 21.6 | 237 | 32 (≈ 12.5 µg/mL) | 16 (≈ 6.23 µg/mL) | > 512 | –
14 | CCCCCCCCCCCCCCCC(N)CO (configuration not stated) | 1.52 µM (≈ 0.413 µg/mL) | 237 | 125 | 10.2 | 129 | 128 (≈ 34.8 µg/mL) | 16 (≈ 4.34 µg/mL) | 512 (≈ 139 µg/mL) | FIC [13]: 0.25; FIC [14]: 0.5; FIC [15]: 0.25; FIC [16]: 0.5; FIC [17]: 0.5; fractional inhibitory concentration index (FICI) [18]: 0.38; fractional inhibitory concentration index (FICI) [19]: 0.63; fractional inhibitory concentration index (FICI) [20]: 0.75; fractional inhibitory concentration index (FICI) [21]: 0.56; fractional inhibitory concentration index (FICI) [22]: 0.53; Activity [23]: 87.5%
15 | CCCCCCCCCCCCCCCCCCCC(CNCC)NC(=O)OC(C)(C)C (configuration not stated) | 4 µM (≈ 1.82 µg/mL) | 90 | 33.7 | 4.7 | 158 | 16 (≈ 7.28 µg/mL) | 256 (≈ 116 µg/mL) | > 512 | –
16 | NCC[C@H](O)C(=O)N[C@@H]1C[C@H](N)[C@@H](O[C@H]2O[C@H](CN)[C@@H](O)[C@H](O)[C@H]2O)[C@H](O)[C@H]1O[C@H]1O[C@H](CO)[C@@H](O)[C@H](N)[C@H]1O [AMIKACIN] | 0.1 µM and 0.08 µg/mL | – | – | – | – | 1 (≈ 0.586 µg/mL) | – | – | FIC [7]: 0.063; FIC [8]: 0.25; FIC [9]: 0.5
17 | CO[C@H]1/C=C/O[C@@]2(C)Oc3c(C)c(O)c4c(O)c(c(/C=N/N5CCN(C)CC5)c(O)c4c3C2=O)NC(=O)/C(C)=C\C=C\[C@H](C)[C@H](O)[C@@H](C)[C@@H](O)[C@@H](C)[C@H](OC(C)=O)[C@@H]1C [RIFAMPIN] | 0.04 µM and 0.03 µg/mL | – | – | – | – | 19.5 (≈ 16 µg/mL) | – | – | FIC [8]: 0.063; FIC [9]: 0.25; Activity [24]: 27%; Activity [25]: Active
